This is an account of results in US11925629B2, “Heterocyclic inhibitors of ERK1 and ERK2 and their use in the treatment of cancer” (Asana Biosciences, LLC, priority 2015, dated 2024).

Where two headings read alike, the source gives them in different places.

Experiment [1] concerns HCT116 (colorectal carcinoma, K Ras G13D) cells. Description: Cell proliferation (Alamar Blue) assay, HCT116. It counts as cell-based, human. The essentials:
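5000 cells/well, 16-24 h attach; cpd 0.0005-10 uM (3-fold dilns) x 72 h, 37° C./5% CO2; Alamar Blue 1× 1-3 h; fluor 540/590 nm; IC50, variable-slope sigmoid.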

The subject of experiment [2] is phosphorylation of RSK1(S380) (the downstream target of ERK1/2). Description: Phospho-RSK1(S380) ELISA assay in HT-29 cells. The experiment is classed as cell-based, human. Conditions: read-out: Mechanistic Cell Assay RSK1 Phos HT29 IC50. Here is the method:
Phospho-RSK1(S380) ELISA Assay
HT-29 cells (colorectal carcinoma, B-RafV600E); obtained from ATCC, USA) were seeded (60,000 cells/well) in a 96-well plate and incubated at 37° C./5% CO2 overnight and then treated with desired compound dilutions for 2 h. Medium was removed and cells were rinsed once with ice-cold 1×PBS, then 0.070 mL ice-cold 1× cell lysis buffer containing 1 mM PMSF was added to each well and the plate was incubated on a shaker for 2 h and 30 min at 4° C. The plate was then centrifuged for 20 min (×4000 rpm) at 4° C. and the supernatant was transferred to a new plate. Cell lysates were diluted with sample diluent at a ratio of 1:1. The ELISA was then carried out following the manufacturer's protocol (PathScan® phospho-RSK1(Ser380) Sandwich ELISA Kit, Cell Signaling Technologies). The plate was read at 450 nm within 30 min after adding STOP solution. The IC50 values were subsequently determined using a sigmoidal dose-response curve (variable slope) in GraphPad Prism® 5 software.

The mark [3] stands for this setting: Homo sapiens, HCT-116, HCT116 cells.
The mark [4] stands for this setting: Homo sapiens, HT-29, HT29 cells, phospho-RSK1(S380).
The mark [5] stands for this setting: Homo sapiens, HT-29, HT29 cells.

Regarding `Cc1cnc(Nc2ccc(Oc3ccccc3)cc2)nc1-n1cnc(C(=O)N[C@H](CO)c2cccc(Cl)c2)c1` (stereo in doubt) [Example 250, N-(1-(3-chlorophenyl)-2-hydroxyethyl)-1-(5-methyl-2-((4-phenoxyphenyl)amino)pyrimidin-4-yl)-1H-imidazole-4-carboxamide], the IC50 was above 2500 nM in experiment [1] (setting [3]) and 500 to 2500 nM in experiment [2] (setting [4]).

Consider `Cc1cnc(Nc2ccc(F)cc2)nc1-n1cnc(C(=O)NCc2cccc(Cl)c2CO)c1` [Example 262, N-(3-chloro-2-(hydroxymethyl)benzyl)-1-(2-((4-fluorophenyl)amino)-5-methylpyrimidin-4-yl)-1H-imidazole-4-carboxamide], for which the values for the IC50 in experiment [1] (setting [3]) and in experiment [2] (setting [4]) were 500 to 2500 nM and at most 100 nM, respectively.

As for `Cc1cnc(Nc2ccc(F)cc2)nc1-n1cnc(C(=O)N[C@@H](CN)c2cccc(Cl)c2)c1` [Example 249, (R)-N-(2-amino-1-(3-chlorophenyl)ethyl)-1-(2-((4-fluorophenyl)amino)-5-methylpyrimidin-4-yl)-1H-imidazole-4-carboxamide], the IC50 in experiment [1] (setting [3]) and in experiment [2] (setting [4]) was 500 to 2500 nM in each case.

With `Cc1cnc(NC2CCOCC2)nc1-n1cnc(C(=O)N[C@]2(c3cccc(Cl)c3)C[C@@H](O)C2)c1` [Example 245, N-((1s,3s)-1-(3-chlorophenyl)-3-hydroxycyclobutyl)-1-(5-methyl-2-((tetrahydro-2H-4-yl)amino)pyrimidin-4-yl)-1H-imidazole-4-carboxamide], the IC50 was in the range of 500 to 2500 nM in experiment [1] (setting [3]) and 250 to 500 nM in experiment [2] (setting [4]).

Take `Cc1cnc(NC2CCOCC2)nc1-n1cnc(C(=O)NC(CO)c2cccc(C(C)(C)C)c2)c1` (stereo not shown) [Example 258, N-(1-(3-(tert-butyl)phenyl)-2-hydroxyethyl)-1-(5-methyl-2-((tetrahydro-2H-pyran-4-yl)amino)pyrimidin-4-yl)-1H-imidazole-4-carboxamide]: the IC50 in experiment [1] (setting [3]) lay within 500 to 2500 nM; in experiment [2] (setting [4]), 250 to 500 nM.

As for `Cc1cnc(NC2CC(F)(F)C2)nc1-n1cnc(C(=O)N[C@@H](CN)c2cc(F)cc(Cl)c2)c1` [Example 289, (R)-N-(2-amino-1-(3-chloro-5-fluorophenyl)ethyl)-1-(2-((3,3-difluorocyclobutyl)amino)-5-methylpyrimidin-4-yl)-1H-imidazole-4-carboxamide], the IC50 is above 2500 nM in experiment [1] (setting [3]) and 500 to 2500 nM in experiment [2] (setting [4]).

On to `Cc1cnc(NC2CCOC2)nc1-n1cnc(C(=O)NC(CN)c2cccc(Cl)c2)c1` (stereo not shown) [Example 235, N-(2-amino-1-(3-chlorophenyl)ethyl)-1-(5-methyl-2-((tetrahydrofuran-3-yl)amino)pyrimidin-4-yl)-1H-imidazole-4-carboxamide], for which the IC50 in experiment [1] (setting [3]) and in experiment [2] (setting [4]) was 100 to 250 nM throughout.

In the case of `Cc1cccc(C(CO)NC(=O)c2cn(-c3nc(NC4CCOCC4)ncc3C)cn2)c1` (stereo not shown) [Example 238, N-(2-hydroxy-1-(m-tolyl)ethyl)-1-(5-methyl-2-((tetrahydro-2H-pyran-4-yl)amino)pyrimidin-4-yl)-1H-imidazole-4-carboxamide], the IC50 in experiment [1] (setting [3]) lay within 500 to 2500 nM; in experiment [2] (setting [4]), 250 to 500 nM.

Consider `Cc1cnc(NC2CCOCC2)nc1-n1cnc(C(=O)NC(C(N)=O)c2cccc(Cl)c2)c1` (stereo not shown) [Example 312, N-(2-amino-1-(3-chlorophenyl)-2-oxoethyl)-1-(5-methyl-2-((tetrahydro-2H-pyran-4-yl)amino)pyrimidin-4-yl)-1H-imidazole-4-carboxamide], for which the IC50 was above 2500 nM in experiment [1] (setting [3]) and 500 to 2500 nM in experiment [2] (setting [5]).

In the case of `Cc1cnc(N[C@H]2CC[C@@H](O)CC2)nc1-n1cnc(C(=O)N[C@H](CO)c2cccc(Cl)c2)c1` [Example 242, N-((S)-1-(3-chlorophenyl)-2-hydroxyethyl)-1-(2-(((1r,4S)-4-hydroxycyclohexyl)amino)-5-methylpyrimidin-4-yl)-1H-imidazole-4-carboxamide], the IC50 in experiment [1] (setting [3]) fell in the range of 500 to 2500 nM; in experiment [2] (setting [4]), 250 to 500 nM.

For `Cc1cnc(N[C@H]2CCOC2)nc1-n1cnc(C(=O)NCc2cccc(C(F)(F)F)c2)c1` [Example 311, (S)-1-(5-methyl-2-((tetrahydrofuran-3-yl)amino)pyrimidin-4-yl)-N-(3-(trifluoromethyl)benzyl)-1H-imidazole-4-carboxamide], the IC50 is above 2500 nM in experiment [1] (setting [3]) and 500 to 2500 nM in experiment [2] (setting [5]).

`Cc1cnc(NC2CCOC(C)C2)nc1-n1cnc(C(=O)N[C@H](CO)c2cccc(Cl)c2)c1` (stereo partly drawn) [Example 251, N-((S)-1-(3-chlorophenyl)-2-hydroxyethyl)-1-(5-methyl-2-((2-methyltetrahydro-2H-pyran-4-yl)amino)pyrimidin-4-yl)-1H-imidazole-4-carboxamide]: the values for the IC50 in experiment [1] (setting [3]) and in experiment [2] (setting [4]) were 250 to 500 nM and at most 100 nM, respectively.

For the compound `Cc1cnc(NC2CCOCC2)nc1-n1cnc(C(=O)NCc2ccccc2CCO)c1` [Example 94, N-(2-(2-hydroxy-ethyl)benzyl)-1-(5-methyl-2-((tetrahydro-2H-pyran-4-yl)amino)pyrimidin-4-yl)-1H-imidazole-4-carboxamide], the IC50 in experiment [1] (HCT116 cells) fell in the range of 500 to 2500 nM; in experiment [2] (HT29 cells, phospho-RSK1(S380)), 500 to 2500 nM.

Regarding `Cc1cnc(NC2CCS(=O)(=O)C2)nc1-n1cnc(C(=O)N[C@H](CO)c2cccc(Cl)c2)c1` (stereo partly drawn) [Example 246, N-((S)-1-(3-chlorophenyl)-2-hydroxyethyl)-1-(2-((1,1-dioxidotetrahydrothiophen-3-yl)amino)-5-methylpyrimidin-4-yl)-1H-imidazole-4-carboxamide], the half-maximal inhibitory concentration (IC50) in experiment [1] (setting [3]) and in experiment [2] (setting [4]) was above 2500 nM in each case.

`Cc1cnc(NC(CO)CO)nc1-n1cnc(C(=O)N[C@H](CO)c2cccc(Cl)c2)c1` [Example 260, (S)-N-(1-(3-chlorophenyl)-2-hydroxyethyl)-1-(2-((1,3-dihydroxypropan-2-yl)amino)-5-methylpyrimidin-4-yl)-1H-imidazole-4-carboxamide]: the IC50 in experiment [1] (setting [3]) and in experiment [2] (setting [4]) was above 2500 nM throughout.

Take `Cc1cnc(N[C@@H]2CCOC2)nc1-n1cnc(C(=O)N[C@H](CO)c2cccc(Cl)c2)c1` [Example 265, N-((S)-1-(3-chlorophenyl)-2-hydroxyethyl)-1-(5-methyl-2-(((R)-tetrahydrofuran-3-yl)amino)pyrimidin-4-yl)-1H-imidazole-4-carboxamide]: the results for the IC50 in experiment [1] (setting [3]) and in experiment [2] (setting [4]) were 100 to 250 nM and 250 to 500 nM, respectively.

For the compound `Cc1cnc(NC2CCOCC2)nc1-n1cnc(C(=O)NCc2ccccc2CCO)c1` [Example 243, N-(2-(2-hydroxyethyl)benzyl)-1-(5-methyl-2-((tetrahydro-2H-pyran-4-yl)amino)pyrimidin-4-yl)-1H-imidazole-4-carboxamide], the IC50 in experiment [1] (HCT116 cells) was above 2500 nM; in experiment [2] (setting [4]) it was 500 to 2500 nM.

Consider `Cc1cnc(Nc2ccc(F)cc2Cl)nc1-n1cnc(C(=O)N[C@H](CO)c2cccc(Cl)c2)c1` [Example 241, (S)-1-(2-((2-chloro-4-fluorophenyl)amino)-5-methylpyrimidin-4-yl)-N-(1-(3-chlorophenyl)-2-hydroxyethyl)-1H-imidazole-4-carboxamide], for which the IC50 is above 2500 nM in experiment [1] (setting [3]) and 250 to 500 nM in experiment [2] (setting [4]).

Take `Cc1cnc(NC2CCC(F)(F)CC2)nc1-n1cnc(C(=O)N[C@H](CO)c2cccc(Cl)c2)c1` [Example 240, (S)-N-(1-(3-chlorophenyl)-2-hydroxyethyl)-1-(2-((4,4-difluorocyclohexyl)amino)-5-methylpyrimidin-4-yl)-1H-imidazole-4-carboxamide]: the IC50 in experiment [1] (setting [3]) is 250 to 500 nM; in experiment [2] (setting [4]), 100 to 250 nM.

With `Cc1cnc(NC2CCOCC2)nc1-n1cnc(C(=O)NCc2ccccc2C(C)(C)O)c1` [Example 293, N-(2-(2-hydroxypropan-2-yl)benzyl)-1-(5-methyl-2-((tetrahydro-2H-pyran-4-yl)amino)pyrimidin-4-yl)-1H-imidazole-4-carboxamide], the IC50 in experiment [1] (setting [3]) and in experiment [2] (setting [4]) was 500 to 2500 nM throughout.

Regarding `Cc1cnc(NC2CCOCC2)nc1-n1cnc(C(=O)NC(CO)c2ccc(Cl)s2)c1` (stereo not shown) [Example 257, N-(1-(5-chlorothiophen-2-yl)-2-hydroxyethyl)-1-(5-methyl-2-((tetrahydro-2H-pyran-4-yl)amino)pyrimidin-4-yl)-1H-imidazole-4-carboxamide], the IC50 in experiment [1] (setting [3]) is above 2500 nM; in experiment [2] (setting [4]), 250 to 500 nM.

Consider `Cc1cnc(NC2CCOc3ccccc32)nc1-n1cnc(C(=O)N[C@H](CN)c2cccc(Cl)c2)c1` (stereo partly drawn) [Example 271, N-((S)-2-amino-1-(3-chlorophenyl)ethyl)-1-(2-(chroman-4-ylamino)-5-methylpyrimidin-4-yl)-1H-imidazole-4-carboxamide], for which the IC50 in experiment [1] (setting [3]) and in experiment [2] (setting [4]) was at most 100 nM each time.

On to `Cc1cnc(Nc2ccc3c(c2)OCO3)nc1-n1cnc(C(=O)N[C@H](CN)c2cccc(Cl)c2)c1` [Example 266, (S)-N-(2-amino-1-(3-chlorophenyl)ethyl)-1-(2-(benzo[d][1,3]dioxol-5-ylamino)-5-methylpyrimidin-4-yl)-1H-imidazole-4-carboxamide], for which the IC50 in experiment [1] (setting [3]) and in experiment [2] (setting [4]) was at most 100 nM in each case.
